Results published in publication PMC7587356, “High-Throughput Screening for Inhibitors of the SARS-CoV-2 Protease Using a FRET-Biosensor” (Molecules, 2020).
Where a name gives a salt, the structure may show the parent alone. Read-outs that look alike come from different tables or passages of the source.

Target: SARS-CoV-2 3CLpro (Severe acute respiratory syndrome coronavirus 2, UniProt P0DTD1)
Assay: biochemical
Type: biochemical
Parameters: Replicate_1 / Replicate_2 / mean / mean (LOPAC_screen_w_protease): unit not given here
Settings: for inhibition at 5 µM: 4 h
[1] = sheet LOPAC_screen_w_protease, primary screen with protease, 5 µM, mean of two replicates
[2] = sheet LOPAC_screen_w_protease, primary screen with protease, 5 µM, replicate 1
[3] = sheet LOPAC_screen_w_protease, primary screen with protease, 5 µM, replicate 2
[4] = sheet LOPAC_screen_w_protease, primary screen with protease, mean of two replicates, read-out: mean
[5] = sheet LOPAC_screen_w_protease, primary screen with protease, replicate 1, read-out: Replicate_1
[6] = sheet LOPAC_screen_w_protease, primary screen with protease, replicate 2, read-out: Replicate_2
[7] = sheet LOPAC_screen_w_protease, LOPAC1280 at 5 µM, mean of two replicates, read-out: mean
[8] = sheet LOPAC_screen_w_protease, LOPAC1280 at 5 µM, replicate 1, read-out: Replicate_1
[9] = sheet LOPAC_screen_w_protease, LOPAC1280 at 5 µM, replicate 2, read-out: Replicate_2
[10] = sheet LOPAC_screen_w_protease, primary screen with protease, compound at 5 µM, mean of two replicates, read-out: mean
[11] = sheet LOPAC_screen_w_protease, primary screen with protease, compound at 5 µM, replicate 1, read-out: Replicate_1
[12] = sheet LOPAC_screen_w_protease, primary screen with protease, compound at 5 µM, replicate 2, read-out: Replicate_2
[13] = LOPAC1280 primary screen with protease, 5 µM compound, replicate 1, read-out: Replicate_1 (LOPAC_screen_w_protease)
[14] = LOPAC1280 primary screen with protease, 5 µM compound, replicate 2, read-out: Replicate_2 (LOPAC_screen_w_protease)
[15] = LOPAC1280 primary screen with protease, 5 µM compound, mean of two replicates
[16] = sheet LOPAC_screen_w_protease, primary screen with protease, mean of two replicates
[17] = sheet LOPAC_screen_w_protease, primary screen with protease, replicate 1
[18] = sheet LOPAC_screen_w_protease, primary screen with protease, replicate 2
[19] = LOPAC1280 primary screen with protease, 5 µM compound, replicate 1
[20] = LOPAC1280 primary screen with protease, 5 µM compound, replicate 2
[21] = sheet LOPAC_screen_w_protease, LOPAC1280 primary screen with protease, 5 µM compound, mean of the two replicates
[22] = sheet LOPAC_screen_w_protease, LOPAC1280 primary screen with protease, 5 µM compound, replicate 1
[23] = sheet LOPAC_screen_w_protease, LOPAC1280 primary screen with protease, 5 µM compound, replicate 2
[24] = sheet LOPAC_screen_w_protease, LOPAC1280 at 5 µM, mean of two replicates
[25] = sheet LOPAC_screen_w_protease, LOPAC1280 at 5 µM, replicate 1
[26] = sheet LOPAC_screen_w_protease, LOPAC1280 at 5 µM, replicate 2
[27] = sheet LOPAC_screen_w_protease, LOPAC1280 primary screen at 5 µM, with protease, mean of the two replicates
[28] = sheet LOPAC_screen_w_protease, LOPAC1280 primary screen at 5 µM, with protease, replicate 1
[29] = sheet LOPAC_screen_w_protease, LOPAC1280 primary screen at 5 µM, with protease, replicate 2

CC(C)=CCC/C(C)=C/CC/C(C)=C/CSc1ccccc1C(=O)O [Farnesylthiosalicylic acid]
mean [1]: 0.3894 | Replicate_1 [2]: 1.928 | Replicate_2 [3]: -1.149

NC(=O)OCC(COC(N)=O)c1ccccc1 [Felbamate]
inhibition at 5 µM [4]: 2.23% | inhibition at 5 µM [5]: 3.62% | inhibition at 5 µM [6]: 0.843%

Oc1ccc(C2CNCCc3c2cc(O)c(O)c3Cl)cc1 (stereo not drawn) [Fenoldopam bromide]
inhibition at 5 µM (read-out: Replicate_1 (LOPAC screen with protease)): 29.5% | inhibition at 5 µM (read-out: Replicate_2 (LOPAC screen with protease)): 23% | inhibition at 5 µM (read-out: mean (LOPAC screen with protease)): 26.2%

CC(Cc1ccc(O)cc1)NCC(O)c1cc(O)cc(O)c1 (stereo not drawn) [Fenoterol hydrobromide]
inhibition at 5 µM (sheet LOPAC_screen_w_protease, LOPAC1280 primary screen with protease, 5 µM compound, mean of the two replicates, read-out: mean): 5.3% | inhibition at 5 µM (sheet LOPAC_screen_w_protease, LOPAC1280 primary screen with protease, 5 µM compound, replicate 1, read-out: Replicate_1): 6.58% | inhibition at 5 µM (sheet LOPAC_screen_w_protease, LOPAC1280 primary screen with protease, 5 µM compound, replicate 2, read-out: Replicate_2): 4.02%

O=C1NCC2(CCN(CCc3ccccc3)CC2)O1 [Fenspiride hydrochloride]
inhibition at 5 µM [4]: 2.48% | inhibition at 5 µM [5]: 4.11% | inhibition at 5 µM [6]: 0.843%

COc1cccc2c1[C@@H]1CN(CCCCn3c(=O)[nH]c4c(sc5ncc(-c6ccccc6)nc54)c3=O)C[C@@H]1CO2 [Fiduxosin hydrochloride]
inhibition at 5 µM (sheet LOPAC_screen_w_protease, primary screen of LOPAC1280 at 5 µM with protease, mean of the two replicates, read-out: mean): 3.27% | inhibition at 5 µM (sheet LOPAC_screen_w_protease, primary screen of LOPAC1280 at 5 µM with protease, replicate 1, read-out: Replicate_1): 3.54% | inhibition at 5 µM (sheet LOPAC_screen_w_protease, primary screen of LOPAC1280 at 5 µM with protease, replicate 2, read-out: Replicate_2): 3.01%

O=C(NCC1CCCCN1)c1cc(OCC(F)(F)F)ccc1OCC(F)(F)F (stereo not drawn) [Flecainide acetate]
inhibition at 5 µM [7]: 1.01% | inhibition at 5 µM [8]: 2.84% | inhibition at 5 µM [9]: -0.814%

CCOC(=O)c1ncn2c1CN(C)C(=O)c1cc(F)ccc1-2 [Flumazenil]
inhibition at 5 µM [10]: 3.1% | inhibition at 5 µM [11]: 5.09% | inhibition at 5 µM [12]: 1.11%

Fc1ccc(C(c2ccc(F)cc2)N2CCN(C/C=C/c3ccccc3)CC2)cc1 [Flunarizine dihydrochloride]
inhibition at 5 µM [10]: 2.85% | inhibition at 5 µM [11]: 3.4% | inhibition at 5 µM [12]: 2.29%

CNCCC(Oc1ccc(C(F)(F)F)cc1)c1ccccc1 (stereo not drawn) [Fluoxetine hydrochloride]
inhibition at 5 µM (sheet LOPAC_screen_w_protease, LOPAC1280 primary screen at 5 µM, with protease, mean of the two replicates, read-out: mean): 0.474% | inhibition at 5 µM (sheet LOPAC_screen_w_protease, LOPAC1280 primary screen at 5 µM, with protease, replicate 1, read-out: Replicate_1): 2.07% | inhibition at 5 µM (sheet LOPAC_screen_w_protease, LOPAC1280 primary screen at 5 µM, with protease, replicate 2, read-out: Replicate_2): -1.12%

OCCN1CCN(CCCN2c3ccccc3Sc3ccc(C(F)(F)F)cc32)CC1 [Fluphenazine dihydrochloride]
inhibition at 5 µM [13]: 4.18% | inhibition at 5 µM [14]: -0.136% | mean (LOPAC_screen_w_protease) (LOPAC1280 primary screen with protease, 5 µM compound, mean of the two replicates): 2.023

CCOC(=O)Nc1ccc(NCc2ccc(F)cc2)nc1N [Flupirtine maleate]
inhibition at 5 µM (sheet LOPAC_screen_w_protease, primary screen at 5 µM, mean of two replicates, read-out: mean (LOPAC screen with protease)): 10.9% | inhibition at 5 µM (sheet LOPAC_screen_w_protease, primary screen at 5 µM, replicate 1, read-out: Replicate_1 (LOPAC screen with protease)): 11.1% | inhibition at 5 µM (sheet LOPAC_screen_w_protease, primary screen at 5 µM, replicate 2, read-out: Replicate_2 (LOPAC screen with protease)): 10.6%

CC(C)C(=O)Nc1ccc([N+](=O)[O-])c(C(F)(F)F)c1 [Flutamide]
inhibition at 5 µM (sheet LOPAC_screen_w_protease, primary screen with protease, 5 µM, mean of two replicates, read-out: mean): 0.293% | inhibition at 5 µM (sheet LOPAC_screen_w_protease, primary screen with protease, 5 µM, replicate 1, read-out: Replicate_1): 2.71% | inhibition at 5 µM (sheet LOPAC_screen_w_protease, primary screen with protease, 5 µM, replicate 2, read-out: Replicate_2): -2.13%

COc1ccc(CC(C)NCC(O)c2ccc(O)c(NC=O)c2)cc1 (stereo not drawn) [Formoterol]
inhibition at 5 µM [13]: 1.5% | inhibition at 5 µM [14]: 1.19% | mean (LOPAC_screen_w_protease) [15]: 1.3452

C=C[C@@]1(C)CC(=O)[C@]2(O)[C@@]3(C)[C@@H](O)CCC(C)(C)[C@@H]3[C@H](O)[C@H](OC(C)=O)[C@@]2(C)O1 [Forskolin]
inhibition at 5 µM [7]: 1.29% | inhibition at 5 µM [8]: 1.85% | inhibition at 5 µM [9]: 0.734%

Cc1nc2c([nH]1)c(=O)n(C)c(=O)n2Cc1ccco1 [Furafylline]
inhibition at 5 µM [13]: 3.1% | inhibition at 5 µM [14]: -0.41% | mean (LOPAC_screen_w_protease) [15]: 1.344

O=C([O-])c1cc2cc(Cc3cccnc3)ccc2o1.[Na+] [Furegrelate sodium]
mean (sheet LOPAC_screen_w_protease, primary screen of LOPAC1280 at 5 µM with protease, mean of the two replicates): 4.074 | Replicate_1 (sheet LOPAC_screen_w_protease, primary screen of LOPAC1280 at 5 µM with protease, replicate 1): 5.241 | Replicate_2 (sheet LOPAC_screen_w_protease, primary screen of LOPAC1280 at 5 µM with protease, replicate 2): 2.907

CCCCc1ccc(C(=O)O)nc1 [Fusaric acid]
inhibition at 5 µM [4]: 2.51% | inhibition at 5 µM [5]: 3.23% | inhibition at 5 µM [6]: 1.8%

CC(=O)O[C@H]1C[C@@]2(C)[C@@H](C[C@@H](O)[C@H]3[C@@]4(C)CC[C@@H](O)[C@@H](C)[C@@H]4CC[C@@]32C)/C1=C(\CCC=C(C)C)C(=O)[O-].[Na+] [Fusidic acid sodium]
mean [16]: 2.25 | Replicate_1 [17]: 4.338 | Replicate_2 [18]: 0.1614

NCCCC(=O)O [GABA]
mean (LOPAC_screen_w_protease) [15]: 1.638 | Replicate_1 (LOPAC_screen_w_protease) [19]: 1.648 | Replicate_2 (LOPAC_screen_w_protease) [20]: 1.628

Cl.Cl.Fc1ccc(C(OCCN2CCN(CCCc3ccccc3)CC2)c2ccc(F)cc2)cc1 [GBR-12909 dihydrochloride]
mean [21]: 4.322 | Replicate_1 [22]: 4.518 | Replicate_2 [23]: 4.126

Cl.Cl.c1ccc(CCCN2CCN(CCOC(c3ccccc3)c3ccccc3)CC2)cc1 [GBR-12935 dihydrochloride]
mean [24]: 0.9925 | Replicate_1 [25]: 2.277 | Replicate_2 [26]: -0.2925

COc1ccc(CNC(=O)/C=C/c2ccc3[nH]cc(CCN(C)C)c3c2)cc1 [GR 4661]
mean [27]: 0.4567 | Replicate_1 [28]: 1.411 | Replicate_2 [29]: -0.4976

Cn1cc(C(=O)OCC2CCN(CCNS(C)(=O)=O)CC2)c2ccccc21 [GR 113808]
mean [24]: 1.128 | Replicate_1 [25]: 1.417 | Replicate_2 [26]: 0.838

COc1[nH]c2ccc(F)cc2c1C(=O)OCC1CCN(CCNS(C)(=O)=O)CC1.NS(=O)(=O)O [GR 125487 sulfamate salt]
mean [27]: 0.6171 | Replicate_1 [28]: 2.002 | Replicate_2 [29]: -0.7681

COc1ccc(NC(=O)c2ccc(-c3ccc(-c4noc(C)n4)cc3C)cc2)cc1N1CCN(C)CC1.Cl [GR 127935 hydrochloride]
mean [27]: 0.6456 | Replicate_1 [28]: 0.5978 | Replicate_2 [29]: 0.6934

COC(=O)N1CCN(C(=O)Cc2ccc(Cl)c(Cl)c2)C(CN2CCCC2)C1.O=C(O)/C=C/C(=O)O (stereo not drawn) [GR-89696 fumarate]
mean [16]: 2.523 | Replicate_1 [17]: 2.9956 | Replicate_2 [18]: 2.05

CN(CCOc1ccc(C[C@H](Nc2ccccc2C(=O)c2ccccc2)C(=O)O)cc1)c1ccccn1 [GW1929]
mean [24]: 1.294 | Replicate_1 [25]: 1.2073 | Replicate_2 [26]: 1.38

CN(C)c1cc2c(Nc3ccc4c(cnn4Cc4ccccc4)c3)ncnc2cn1 [GW2974]
mean (LOPAC_screen_w_protease) [15]: 1.489 | Replicate_1 (LOPAC_screen_w_protease) [19]: 2.805 | Replicate_2 (LOPAC_screen_w_protease) [20]: 0.1722

O=C1Nc2ccc(I)cc2/C1=C/c1cc(Br)c(O)c(Br)c1 [GW5074]
mean [21]: 5.786 | Replicate_1 [22]: 6.4599 | Replicate_2 [23]: 5.112

CC(C)(Sc1ccc(CCN(CCCCC2CCCCC2)C(=O)NC2CCCCC2)cc1)C(=O)O [GW7647]
mean [1]: -0.2447 | Replicate_1 [2]: -0.1471 | Replicate_2 [3]: -0.3423

O=C(Nc1ccccc1)c1cc([N+](=O)[O-])ccc1Cl [GW9662]
mean (LOPAC_screen_w_protease) [15]: 1.573 | Replicate_1 (LOPAC_screen_w_protease) [19]: 2.013 | Replicate_2 (LOPAC_screen_w_protease) [20]: 1.1319

CC1=NN=C(c2ccc(N)cc2)c2cc3c(cc2C1)OCO3.Cl [GYKI 52466 hydrochloride]
mean [27]: 0.5948 | Replicate_1 [28]: 3.75 | Replicate_2 [29]: -2.56
